Data taken from PMC9014410, “Discovery of V-0219: A Small-Molecule Positive Allosteric Modulator of the Glucagon-Like Peptide-1 Receptor toward Oral Treatment for “Diabesity”” (Journal of Medicinal Chemistry, 2022).
Where “and” joins values, the source holds several entries; their conditions need not be identical. Equal values may be shown once. Entries after “also recorded” stand apart in the source; their conditions may differ.

Legend:
hGLP-1R = hGLP-1R (Homo sapiens, UniProt P43220); assay: Calcium mobilization / calcium fluxes in HEK cells stably expressing hGLP-1R (ExviTech flow cytometry); conditions: 10 μM compound, then EC25 of GLP-1
Sequence of hGLP-1R (P43220 24-463): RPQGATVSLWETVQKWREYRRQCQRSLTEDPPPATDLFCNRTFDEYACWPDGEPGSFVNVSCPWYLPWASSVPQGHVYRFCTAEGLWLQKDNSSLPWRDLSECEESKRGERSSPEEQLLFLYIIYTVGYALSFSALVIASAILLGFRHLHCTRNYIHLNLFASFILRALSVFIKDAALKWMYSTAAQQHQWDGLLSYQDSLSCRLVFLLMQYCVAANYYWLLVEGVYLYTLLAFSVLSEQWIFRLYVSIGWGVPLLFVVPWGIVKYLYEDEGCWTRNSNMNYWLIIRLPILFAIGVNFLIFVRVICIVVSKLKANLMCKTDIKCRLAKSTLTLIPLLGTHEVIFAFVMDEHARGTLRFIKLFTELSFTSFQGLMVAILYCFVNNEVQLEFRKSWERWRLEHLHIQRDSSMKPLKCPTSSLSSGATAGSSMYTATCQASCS

male Wistar rats [1] = assay: Feeding inhibition in 12-h fasted male Wistar rats (icv)
hERG channel = hERG channel (Homo sapiens, UniProt Q12809); assay: hERG channel inhibition, whole cell patch clamp in hERG-transfected CHO cells
Sequence of hERG channel (Q12809 whole entry): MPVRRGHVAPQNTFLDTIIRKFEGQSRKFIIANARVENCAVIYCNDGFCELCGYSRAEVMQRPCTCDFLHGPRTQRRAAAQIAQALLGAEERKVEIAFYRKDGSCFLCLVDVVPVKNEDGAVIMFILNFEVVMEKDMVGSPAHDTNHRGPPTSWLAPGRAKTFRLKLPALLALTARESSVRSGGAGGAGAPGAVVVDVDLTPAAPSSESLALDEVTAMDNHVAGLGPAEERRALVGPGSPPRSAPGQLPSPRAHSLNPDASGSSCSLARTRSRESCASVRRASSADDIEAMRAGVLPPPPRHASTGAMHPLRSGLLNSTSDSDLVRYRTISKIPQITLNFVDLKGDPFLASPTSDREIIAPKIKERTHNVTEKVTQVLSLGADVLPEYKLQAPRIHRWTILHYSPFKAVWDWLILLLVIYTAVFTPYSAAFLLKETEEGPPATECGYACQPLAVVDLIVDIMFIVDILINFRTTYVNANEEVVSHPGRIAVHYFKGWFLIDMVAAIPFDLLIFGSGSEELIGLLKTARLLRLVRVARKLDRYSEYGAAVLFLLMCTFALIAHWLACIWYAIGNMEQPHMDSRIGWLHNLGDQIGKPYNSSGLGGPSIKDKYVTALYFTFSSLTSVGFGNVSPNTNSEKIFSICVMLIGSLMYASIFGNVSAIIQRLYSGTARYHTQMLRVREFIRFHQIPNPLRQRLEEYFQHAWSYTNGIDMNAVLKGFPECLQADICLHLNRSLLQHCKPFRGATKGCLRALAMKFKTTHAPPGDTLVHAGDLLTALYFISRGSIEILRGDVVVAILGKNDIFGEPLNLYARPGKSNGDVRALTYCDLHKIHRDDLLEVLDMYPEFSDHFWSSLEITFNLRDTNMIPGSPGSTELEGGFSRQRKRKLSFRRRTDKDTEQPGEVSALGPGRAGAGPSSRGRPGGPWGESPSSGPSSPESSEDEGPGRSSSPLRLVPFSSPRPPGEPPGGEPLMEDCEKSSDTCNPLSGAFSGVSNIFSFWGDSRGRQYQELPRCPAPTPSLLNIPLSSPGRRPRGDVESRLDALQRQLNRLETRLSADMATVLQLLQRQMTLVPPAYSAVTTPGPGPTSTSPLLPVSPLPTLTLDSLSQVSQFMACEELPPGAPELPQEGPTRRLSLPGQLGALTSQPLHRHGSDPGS
Protocol: (tail) current was investigated using Chinese Hamster Ovary (CHO) cells stably transfected with
hERG, employing the whole cell patch clamp technique.
hERG inhibition. Patch clamp experiments were carried out using FlyscreenP® robot. CHO cells
choline chloride, 5 mM KCl, 1 mM MgCl2(H2O)6, 10 mM HEPES, 10 mM glucose, pH 7.4) to give
cell density of ~ 0.5 million per mL, and transferred to the cell mixer on Flyscreen® 8500 robot
which keeps cell suspension in a ready-for-use condition.
KMeSO3, 5 mM MgCl2(H2O)6, 10 mM HEPES-KOH, 5 mM EGTA, 5 mM K2ATP at pH 7.2. Ionic
currents from hERG transfected cells were measured in the whole cell configuration. Once the whole
the hERG current. An EC NaCl solution (120 mM NaCl, 5 mM KCl, 1.8 mM CaCl2, 10 mM
HEPES, 10 mM glucose, pH 7.4) was added for control readings, which were measured for ~ 360 s
followed by compound addition.
continuously for ~ 600 seconds. For analysis purposes, the current of interest (IKr) was considered.
Results were expressed as absolute values and percent change from control. Percent inhibition was
calculated by comparing the IKr current before and after addition of test compound once a steady-
state current had been attained.

[2] = In vivo pharmacokinetic study in male Sprague Dawley rats; conditions: rat, plasma
panel of 54 GPCRs = assay: Selectivity panel of binding assays (Eurofins Cerep); conditions: 10 μM; all 54 receptors
Text: (§1) 3. Binding to off-target receptors
(§2) Eurofins Cerep (France). Significant binding affinity was defined as a displacement of target
selective radioligand greater than 50% using a concentration of 10 µM of 9. […]

[3] = Microsomal stability test as summarised in the text (species not given in the sentence); assay type: in vitro ADME; conditions: rat, dog, human, liver microsomes; text summary of Table S6; read-out: half-life time in a microsomal stability test
CYP2C9 = CYP2C9 (Homo sapiens, UniProt P11712); assay: P450 cytochrome inhibition, CYP2C9; assay type: in vitro ADME
Sequence of CYP2C9 (P11712 whole entry, canonical isoform): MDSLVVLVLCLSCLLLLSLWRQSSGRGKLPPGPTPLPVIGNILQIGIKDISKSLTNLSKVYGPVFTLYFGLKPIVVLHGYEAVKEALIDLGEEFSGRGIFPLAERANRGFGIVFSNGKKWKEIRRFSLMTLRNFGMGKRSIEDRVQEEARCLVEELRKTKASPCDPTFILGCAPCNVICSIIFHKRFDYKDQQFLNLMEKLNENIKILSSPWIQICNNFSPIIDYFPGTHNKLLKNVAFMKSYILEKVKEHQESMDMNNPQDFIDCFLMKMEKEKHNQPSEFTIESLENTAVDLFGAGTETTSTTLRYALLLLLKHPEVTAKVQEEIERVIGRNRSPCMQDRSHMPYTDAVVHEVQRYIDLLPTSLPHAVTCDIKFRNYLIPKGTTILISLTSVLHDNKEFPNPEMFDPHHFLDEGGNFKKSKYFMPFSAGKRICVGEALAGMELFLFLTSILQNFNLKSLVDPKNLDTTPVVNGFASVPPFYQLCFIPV
Protocol: Inhibition of P450 cytochrome isoforms. […] Effect on hERG channel. […] Patch clamp experiments were carried out using […]® robot. […] After S27

male Wistar rats [4] = assay: Anxiety-like behavior in the elevated plus-maze; assay type: in vivo, rat; conditions: 9 1 and 0.5 mg/kg ip
Protocol: Animals naïve to the maze were manipulated for 7 days before testing. The day of the experiment, 30 min after ip injection of 9, animals were placed in the center of the maze, facing an open arm. The number of entries and the % of time spent in the exposed arms of the maze were measured. Test length was 5 min and animals were not retested.

wild-type C57BL/6N mice = assay: Glucose tolerance test in wild-type mice; assay type: in vivo, mouse
Protocol: (§3) Glucose tolerance test was carried out both in Wistar and Zucker (fa/fa) obese male rats and in wild-type and GLP-1R KO mice, by injecting an ip glucose load of 2 g/kg body weight (diluted in saline) or by oral administration of a glucose solution (2 g/kg in a volume of water of […] body weight). Animals were food-deprived overnight (12 h fasting) before testing. Thirty minutes before glucose load, animals received by ip administration the compound being tested dissolved in saline/DMSO (0.2%) as vehicle. Tail blood samples were collected before (0 min) and 5, 10, 15, 30, 45, 60, and 120 min after glucose administration. Glucose was determined using a commercial glucometer (Accu-check, Roche Diagnostic).

CCR1 (h) = CCR1 (h) (Homo sapiens, UniProt P32246); assay: biochemical; set-up: radioligand displacement binding panel (Eurofins Cerep), % inhibition of control specific binding; conditions: agonist radioligand; read-out: % Inhibition of Control Specific Binding
Sequence of CCR1 (h) (P32246 whole entry): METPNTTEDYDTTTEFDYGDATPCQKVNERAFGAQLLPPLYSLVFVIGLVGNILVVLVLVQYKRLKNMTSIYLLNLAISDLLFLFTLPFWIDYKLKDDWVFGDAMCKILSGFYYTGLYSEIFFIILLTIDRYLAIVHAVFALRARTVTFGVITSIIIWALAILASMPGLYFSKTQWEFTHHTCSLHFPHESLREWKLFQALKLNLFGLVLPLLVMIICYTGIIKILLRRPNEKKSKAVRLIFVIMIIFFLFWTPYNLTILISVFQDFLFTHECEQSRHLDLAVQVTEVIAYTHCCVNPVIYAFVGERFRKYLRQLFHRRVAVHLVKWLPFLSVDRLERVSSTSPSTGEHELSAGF
Text: as §1, §2
(§4) selective radioligand greater than 50% using a concentration of 10 µM of 9.

B2 (h) = biological target: T1, B2 (h) (Homo sapiens, UniProt P30411); assay: biochemical; set-up: radioligand displacement binding panel (Eurofins Cerep), % inhibition of control specific binding; conditions: agonist radioligand; read-out: % Inhibition of Control Specific Binding
T1 construct: gene BDKRB2
T1 sequence (P30411 whole entry): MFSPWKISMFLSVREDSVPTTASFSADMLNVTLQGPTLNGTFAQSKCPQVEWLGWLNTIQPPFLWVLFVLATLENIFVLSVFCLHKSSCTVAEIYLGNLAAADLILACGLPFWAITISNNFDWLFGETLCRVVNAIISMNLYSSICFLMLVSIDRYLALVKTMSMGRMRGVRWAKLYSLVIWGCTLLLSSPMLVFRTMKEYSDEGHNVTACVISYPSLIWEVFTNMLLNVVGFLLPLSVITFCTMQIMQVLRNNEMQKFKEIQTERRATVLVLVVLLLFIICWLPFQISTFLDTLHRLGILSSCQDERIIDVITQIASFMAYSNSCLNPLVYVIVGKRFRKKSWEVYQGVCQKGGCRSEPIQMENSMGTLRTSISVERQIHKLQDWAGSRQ
Text: as §1, §2, §4

H1 (h) = biological target: T2, H1 (h) (Homo sapiens, UniProt P35367); assay: biochemical; set-up: radioligand displacement binding panel (Eurofins Cerep), % inhibition of control specific binding; conditions: antagonist radioligand; read-out: % Inhibition of Control Specific Binding
T2 construct: gene HRH1
T2 sequence (P35367 whole entry): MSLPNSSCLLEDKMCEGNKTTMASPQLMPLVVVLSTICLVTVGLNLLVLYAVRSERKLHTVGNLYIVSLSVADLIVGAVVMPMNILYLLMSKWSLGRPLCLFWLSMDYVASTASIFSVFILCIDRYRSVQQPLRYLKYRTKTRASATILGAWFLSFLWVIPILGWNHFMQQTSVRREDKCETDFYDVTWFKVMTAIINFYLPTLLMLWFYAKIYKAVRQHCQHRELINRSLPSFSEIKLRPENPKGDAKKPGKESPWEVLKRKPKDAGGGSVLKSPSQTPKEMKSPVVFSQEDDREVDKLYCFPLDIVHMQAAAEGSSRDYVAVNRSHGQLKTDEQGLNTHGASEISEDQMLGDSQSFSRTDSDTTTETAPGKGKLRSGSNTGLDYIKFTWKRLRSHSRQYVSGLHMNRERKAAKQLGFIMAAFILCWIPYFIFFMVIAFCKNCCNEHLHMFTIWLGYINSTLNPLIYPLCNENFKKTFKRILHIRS
Text: as §1, §2, §4

NK2 (h) = biological target: T3, NK2 (h) (Homo sapiens, UniProt P21452); assay: biochemical; set-up: radioligand displacement binding panel (Eurofins Cerep), % inhibition of control specific binding; conditions: agonist radioligand; read-out: % Inhibition of Control Specific Binding
T3 construct: gene TACR2
Text: as §1, §2, §4

H2 (h) = biological target: T4, H2 (h) (Homo sapiens, UniProt P25021); assay: biochemical; set-up: radioligand displacement binding panel (Eurofins Cerep), % inhibition of control specific binding; conditions: antagonist radioligand; read-out: % Inhibition of Control Specific Binding
T4 construct: gene HRH2
T4 sequence (P25021 whole entry): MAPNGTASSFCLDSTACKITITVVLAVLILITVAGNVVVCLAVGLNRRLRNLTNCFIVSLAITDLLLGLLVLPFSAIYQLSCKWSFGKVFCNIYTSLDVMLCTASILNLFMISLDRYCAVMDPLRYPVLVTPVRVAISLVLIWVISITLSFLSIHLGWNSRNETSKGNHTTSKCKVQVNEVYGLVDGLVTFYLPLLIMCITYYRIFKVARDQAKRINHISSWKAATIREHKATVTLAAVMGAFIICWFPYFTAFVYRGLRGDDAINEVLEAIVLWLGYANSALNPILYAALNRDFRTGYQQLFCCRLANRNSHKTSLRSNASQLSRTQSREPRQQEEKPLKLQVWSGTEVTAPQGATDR
Text: as §1, §2, §4

A3 (h) = biological target: T5, A3 (h) (Homo sapiens, UniProt P0DMS8); assay: biochemical; set-up: radioligand displacement binding panel (Eurofins Cerep), % inhibition of control specific binding; conditions: agonist radioligand; read-out: % Inhibition of Control Specific Binding
T5 construct: gene ADORA3
T5 sequence (P0DMS8 whole entry): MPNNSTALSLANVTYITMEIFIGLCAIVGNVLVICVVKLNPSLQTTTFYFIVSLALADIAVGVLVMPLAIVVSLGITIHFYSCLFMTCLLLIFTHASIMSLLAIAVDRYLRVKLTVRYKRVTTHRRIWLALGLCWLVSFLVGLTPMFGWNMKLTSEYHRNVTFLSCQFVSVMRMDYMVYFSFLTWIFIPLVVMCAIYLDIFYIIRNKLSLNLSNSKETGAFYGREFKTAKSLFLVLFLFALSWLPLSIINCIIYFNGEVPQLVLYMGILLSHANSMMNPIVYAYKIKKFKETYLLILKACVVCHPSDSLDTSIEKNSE
Text: as §1, §2, §4

GAL2 (h) = biological target: T6, GAL2 (h) (Homo sapiens, UniProt O43603); assay: biochemical; set-up: radioligand displacement binding panel (Eurofins Cerep), % inhibition of control specific binding; conditions: agonist radioligand; read-out: % Inhibition of Control Specific Binding
T6 construct: gene GALR2
Text: as §1, §2, §4

A2A (h) = biological target: T7, A2A (h) (Homo sapiens, UniProt P29274); assay: biochemical; set-up: radioligand displacement binding panel (Eurofins Cerep), % inhibition of control specific binding; conditions: agonist radioligand; read-out: % Inhibition of Control Specific Binding
T7 construct: gene ADORA2A
Text: as §1, §2, §4

MT1 (ML1A) (h) = biological target: T8, MT1 (ML1A) (h) (Homo sapiens, UniProt P48039); assay: biochemical; set-up: radioligand displacement binding panel (Eurofins Cerep), % inhibition of control specific binding; conditions: agonist radioligand; read-out: % Inhibition of Control Specific Binding
T8 construct: gene MTNR1A
Text: as §1, §2, §4

β1 (h) = biological target: T9, β1 (h) (Homo sapiens, UniProt P08588); assay: biochemical; set-up: radioligand displacement binding panel (Eurofins Cerep), % inhibition of control specific binding; conditions: agonist radioligand; read-out: % Inhibition of Control Specific Binding
T9 construct: gene ADRB1
Text: as §1, §2, §4

NK3 (h) = biological target: T10, NK3 (h) (Homo sapiens, UniProt P29371); assay: biochemical; set-up: radioligand displacement binding panel (Eurofins Cerep), % inhibition of control specific binding; conditions: antagonist radioligand; read-out: % Inhibition of Control Specific Binding
T10 construct: gene TACR3
T10 sequence (P29371 whole entry): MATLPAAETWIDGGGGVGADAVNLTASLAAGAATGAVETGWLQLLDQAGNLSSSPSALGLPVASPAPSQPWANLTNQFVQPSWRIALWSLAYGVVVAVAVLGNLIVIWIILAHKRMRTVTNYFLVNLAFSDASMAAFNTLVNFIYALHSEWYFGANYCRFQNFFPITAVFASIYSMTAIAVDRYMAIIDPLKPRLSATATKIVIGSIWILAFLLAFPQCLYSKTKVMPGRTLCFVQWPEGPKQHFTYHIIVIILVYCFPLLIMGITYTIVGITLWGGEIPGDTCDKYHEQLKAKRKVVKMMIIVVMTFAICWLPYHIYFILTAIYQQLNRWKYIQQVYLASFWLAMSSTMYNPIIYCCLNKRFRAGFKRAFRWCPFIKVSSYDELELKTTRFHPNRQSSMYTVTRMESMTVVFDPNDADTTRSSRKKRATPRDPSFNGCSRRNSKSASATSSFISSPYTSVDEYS
Text: as §1, §2, §4

A1 (h) = biological target: T11, A1 (h) (Homo sapiens, UniProt P30542); assay: biochemical; set-up: radioligand displacement binding panel (Eurofins Cerep), % inhibition of control specific binding; conditions: antagonist radioligand; read-out: % Inhibition of Control Specific Binding
T11 construct: gene ADORA1
T11 sequence (P30542 whole entry): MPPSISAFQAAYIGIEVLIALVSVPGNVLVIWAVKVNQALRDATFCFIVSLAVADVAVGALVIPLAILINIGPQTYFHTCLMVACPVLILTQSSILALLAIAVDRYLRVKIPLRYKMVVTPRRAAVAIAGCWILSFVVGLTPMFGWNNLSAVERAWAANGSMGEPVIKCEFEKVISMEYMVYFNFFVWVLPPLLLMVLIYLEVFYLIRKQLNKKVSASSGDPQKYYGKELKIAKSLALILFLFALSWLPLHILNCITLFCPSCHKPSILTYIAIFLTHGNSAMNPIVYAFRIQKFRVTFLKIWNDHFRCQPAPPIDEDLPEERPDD
Text: as §1, §2, §4

EndoC-βH1 cells = assay: Insulin secretion by human pancreatic EndoC-βH1 cells; assay type: cell-based; conditions: high glucose concentration
Protocol: Both cell lines were cultured in RPMI 1640 medium supplemented with 10% fetal calf serum as described. Cell monolayers were incubated at 37 °C in a 7.5% CO2 atmosphere. For insulin secretion studies, cells were detached, washed once with glucose-free medium and placed in 48 multiwell plates (100,000 cells per well) and kept in glucose-free medium for 1.5 h prior to incubation with drugs. The incubation was done using two types of culture media, defined as low glucose (0.5–3 mM) and high glucose (15 mM). […] Incubation with compounds lasted 30 min, and then the media was collected, centrifuged at 4 °C for 2 min until assayed for insulin using commercial ELISA kit.

Wistar rats = assay: Glucose tolerance test in Wistar rats; assay type: in vivo, rat; conditions: (S)-9 0.04 and 0.2 mg/kg ip; ip 2 g/kg glucose
Protocol: as §3

[5] = test system: Zucker (fa/fa) obese male rats; assay: Glucose tolerance test in diabetic fatty Zucker rats; assay type: in vivo, rat; conditions: (S)-9 0.4 mg/kg intragastrically; ip 2 g/kg glucose
INS-1 β-cells = assay: Insulin secretion by rat INS-1 / INS-1E insulinoma cells; assay type: cell-based; conditions: INS-1E cells, 0.5 mM glucose, single representative experiment
Protocol: The incubation was done using two types of culture media, defined as low glucose (0.5–3 mM) and high glucose (15 mM). […] Incubation with compounds lasted 30 min, and then the media was collected, centrifuged at 4 °C for 2 min until assayed for insulin using commercial ELISA kit.

GLP-1R KO mice = assay: Glucose tolerance test in GLP-1R KO mice; assay type: in vivo, mouse; conditions: (S)-9; 2 g/kg glucose
Protocol: as §3

**Q.** With `O=S(=O)(NC1CCN(Cc2nc(-c3ccc(C(F)(F)F)cc3)no2)CC1)c1ccccc1Cl` [compound 1] as the compound, how does the “result of ExviTech library screening” value (hGLP-1R) read?
**A.** Its value is “putative modulator of the GLP-1R”.

**Q.** What does the source list for `FC(F)(F)c1ccc(-c2noc(CN3CCCC(CN4CCOCC4)C3)n2)cc1` (stereo not shown) [compound 9, 4-{[1-({3-[4-(Trifluoromethyl)phenyl]-1,2,4-oxadiazol-5-yl}methyl)piperidin-3-yl]methyl}morpholine]?
**A.** potentiation of feeding inhibition induced by exendin-4 (in words) (male Wistar rats [1]; 9 1 μg/kg icv): potentiates; also recorded: potentiate the feeding inhibition; also recorded: enhancing satiety induced by the GLP-1R agonist exendin-4; IC50 (hERG channel): 4.13 µM; hERG inhibition (in words) (hERG channel): weak inhibitor of the hERG channel at micromolar concentrations; Inhibition (%), Mean (hERG channel; 1 µM): 29.7%; Inhibition (%), single values (hERG channel; 1 µM): 27.0% and 32.3%; Inhibition (%), Mean (hERG channel; 10 µM): 62.3%; Inhibition (%), single values (hERG channel; 10 µM): 52.1% and 72.5%; Inhibition (%), Mean (hERG channel; 30 µM): 80.5%; Inhibition (%), single values (hERG channel; 30 µM): 78.0% and 83.0%; AUC(0-inf) at 24 h ([2]; IV 2 mg/kg, mean ± SD, N = 4): 311 ± 12.9 ng·h/mL; AUC(0-t) at 24 h ([2]; IV 2 mg/kg, mean ± SD, N = 4): 278 ± 20 ng·h/mL; C0 ([2]; IV 2 mg/kg, mean ± SD, N = 4): 492 ± 81.9 ng/mL; clearance at 24 h ([2]; IV 2 mg/kg, mean ± SD, N = 4): 107 ± 4.58 mL/min/kg; half-life at 24 h ([2]; IV 2 mg/kg, mean ± SD, N = 4): 195 ± 61.8 min; Vd at 24 h ([2]; IV 2 mg/kg, mean ± SD, N = 4, read-out: Vss): 18.1 ± 6.62 L/kg; bioavailability ([2]; PO 10 mg/kg vs IV 2 mg/kg): 39%; bioavailability at 24 h ([2]; PO 10 mg/kg vs IV 2 mg/kg): 38.9 ± 9.52%; AUC(0-inf) at 24 h ([2]; PO 10 mg/kg, mean ± SD, N = 4): 644 ± 267 ng·h/mL; AUC(0-t) at 24 h ([2]; PO 10 mg/kg, mean ± SD, N = 4): 540 ± 132 ng·h/mL; Cmax at 24 h ([2]; PO 10 mg/kg, mean ± SD, N = 4): 185 ± 14.5 ng/mL; Tmax at 24 h ([2]; PO 10 mg/kg, mean ± SD, N = 4): 49.8 ± 17.4 min; half-life at 24 h ([2]; PO 10 mg/kg, mean ± SD, N = 4): 172 ± 113 min; Tmax ([2]; oral route, 10 mg/kg, read-out: time of maximal concentration post-ingestion (converted)): 50 min; displacement of the specific binding (panel of 54 GPCRs): lower than 50%; half-life at 1 µM [3]: > 30 min; IC50 (CYP2C9): 80 µM; anxiety-like behavior in the elevated plus-maze (male Wistar rats [4]): does not induce anxiety-like behavior; also recorded: did not result in the emergence of anxiety-like behaviors nor hypolocomotion; glucose handling after ip glucose load (wild-type C57BL/6N mice; 9 0.1 mg/kg ip, ip 2 g/kg glucose, 0.1 mg/kg): improved glucose handling; glucose handling after oral glucose load (wild-type C57BL/6N mice; 9 0.1 or 1 mg/kg ip, oral 2 g/kg glucose): improved glucose handling; inhibition at 10 µM (CCR1 (h)): 4%; inhibition at 10 µM (B2 (h)): 8%; inhibition at 10 µM (H1 (h)): -4%; inhibition at 10 µM (NK2 (h)): 19%; inhibition at 10 µM (H2 (h)): -13%; inhibition at 10 µM (A3 (h)): -20%; inhibition at 10 µM (GAL2 (h)): 0%; inhibition at 10 µM (A2A (h)): -3%; inhibition at 10 µM (MT1 (ML1A) (h)): -3%; inhibition at 10 µM (β1 (h)): 3%; inhibition at 10 µM (NK3 (h)): -8%; inhibition at 10 µM (A1 (h)): 5%

**Q.** What does the source list for `FC(F)(F)c1ccc(-c2noc(CN3CCC[C@@H](CN4CCOCC4)C3)n2)cc1` [(S)-9, (+)-4-{[(3S)-1-({3-[4-(Trifluoromethyl)phenyl]-1,2,4-oxadiazol-5-yl}methyl)piperidin-3-yl]methyl}morpholine]?
**A.** duration of the feeding effect after injection (male Wistar rats [1]; (S)-9 5 μg/kg icv): up to 2 h; effect on feeding (male Wistar rats [1]; (S)-9 5 μg/kg icv): decreased feeding; potentiation of insulin secretion stimulated by GLP-1 (in words) (EndoC-βH1 cells): similarly potentiate insulin secretion stimulated by GLP-1; glucose handling after glucose load (wild-type C57BL/6N mice; (S)-9, 2 g/kg glucose, 12-h fasted): improvement; glucose handling after glucose load (Wistar rats): clearly improved glucose handling; glucose handling after glucose load, oral dosing [5]: orally active; Insulin secreted (INS-1 β-cells; 0.1 nM test substance): 29 ng/mL; Insulin secreted (INS-1 β-cells; 1 nM test substance): 39 ng/mL; Insulin secreted (INS-1 β-cells; 10 nM test substance): 37 ng/mL; glucose handling after glucose load (GLP-1R KO mice): devoid; also recorded: inactive
